Target: T1, hMCHR (MCH receptor) (Homo sapiens, UniProt Q99705)
T1 construct: (or internally produced); host or cells: CHO (Chinese hamster ovary) cells, membrane preparation
Assay: MCH Assay PCOP Protocol ([125I]-MCH SPA binding to hMCHR-CHO membranes);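 as to Activity (Ki range): A 0.4–50 nM B 51–500 nM C 501–2500 nM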
Conditions: [125I]-MCH SPA binding, hMCHR-CHO membranes; Ki class ranges; read-out: Activity (range of Ki)
How it was run: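 SPA binding with 10 μg hMCHR-CHO membranes and WGA-SPA beads in 25 mM HEPES pH 7.4, 10 mM NaCl, 10 mM MgCl2, 5 mM MnCl2, 0.1% BSA.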

T1 sequence (Q99705 whole entry): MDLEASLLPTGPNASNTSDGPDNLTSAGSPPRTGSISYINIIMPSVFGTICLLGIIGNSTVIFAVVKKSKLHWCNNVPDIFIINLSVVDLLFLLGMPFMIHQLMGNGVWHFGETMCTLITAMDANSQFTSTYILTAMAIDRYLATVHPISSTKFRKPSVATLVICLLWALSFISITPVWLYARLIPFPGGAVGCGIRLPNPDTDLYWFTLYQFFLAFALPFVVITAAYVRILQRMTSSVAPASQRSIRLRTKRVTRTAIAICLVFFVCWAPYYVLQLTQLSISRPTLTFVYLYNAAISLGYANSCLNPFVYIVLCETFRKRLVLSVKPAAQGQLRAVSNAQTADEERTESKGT

Structure (SMILES)	Ki
CC1CCCN(CCC(CNC(=O)c2cc(C(F)(F)F)cc(C(F)(F)F)c2)c2ccc(Cl)c(Cl)c2)C1 (stereo not drawn) [Example 417]	501 to 2500 nM
O=C(NCC(CCN1CCCC1CN1CCCC1)c1ccc(Cl)c(Cl)c1)c1cc(C(F)(F)F)cc(C(F)(F)F)c1 (stereo not drawn) [Example 418]	501 to 2500 nM
CC1CCCCN1CCC(CNC(=O)c1cc(C(F)(F)F)cc(C(F)(F)F)c1)c1ccc(Cl)c(Cl)c1 (stereo not drawn) [Example 419]	501 to 2500 nM
O=C(NCC(CCNC1c2ccccc2CC1O)c1ccc(Cl)c(Cl)c1)c1cc(C(F)(F)F)cc(C(F)(F)F)c1 (stereo not drawn) [Example 420]	501 to 2500 nM
O=C(NCC(CCN1CCCC1)c1ccc(Cl)c(Cl)c1)Nc1cc(C(F)(F)F)cc(C(F)(F)F)c1 (stereo not drawn) [Example 422]	51 to 500 nM
O=C(NCC(CCN1CCC(O)C1)c1ccc(Cl)c(Cl)c1)Nc1cc(C(F)(F)F)cc(C(F)(F)F)c1 (stereo not drawn) [Example 427]	501 to 2500 nM
O=C(NCC(CCN1CCC(CN2CCCCC2)CC1)c1ccc(Cl)c(Cl)c1)Nc1cc(C(F)(F)F)cc(C(F)(F)F)c1 (stereo not drawn) [Example 429]	501 to 2500 nM
O=C(NCC(CCN1CCCC1CN1CCCC1)c1ccc(Cl)c(Cl)c1)Nc1cc(C(F)(F)F)cc(C(F)(F)F)c1 (stereo not drawn) [Example 430]	501 to 2500 nM
O=C(NCC(CCN1CCC(CO)C1)c1ccc(Cl)c(Cl)c1)Nc1cc(C(F)(F)F)cc(C(F)(F)F)c1 (stereo not drawn) [Example 432]	501 to 2500 nM
CCCCN(CCC(CNC(=O)Nc1cc(C(F)(F)F)cc(C(F)(F)F)c1)c1ccc(Cl)c(Cl)c1)C1CC1 (stereo not drawn) [Example 440]	501 to 2500 nM
COCC1CCCN1CCC(CNC(=O)Nc1cc(C(F)(F)F)cc(C(F)(F)F)c1)c1ccc(Cl)c(Cl)c1 (stereo not drawn) [Example 441]	501 to 2500 nM
Cc1ccc(C(CCN2CCC(N3CCCCC3)CC2)CNC(=O)Nc2cc(C(F)(F)F)cc(C(F)(F)F)c2)cc1 (stereo not drawn) [Example 443]	51 to 500 nM
O=C(NCC(CCN1CCCCC1)c1ccc(Cl)c(Cl)c1)Nc1cc(C(F)(F)F)cc(C(F)(F)F)c1 (stereo not drawn) [Example 444]	51 to 500 nM
Cc1ccc(C(CCN2CCCCC2)CNC(=O)Nc2cc(C(F)(F)F)cc(C(F)(F)F)c2)cc1 (stereo not drawn) [Example 445]	501 to 2500 nM
O=C(NCC(CCN1CCCCC1)c1ccc(Cl)c(Cl)c1)c1cc(Cl)cc(Cl)c1 (stereo not drawn) [Example 446]	501 to 2500 nM
O=C(NCC(CCN1CCCCC1)c1ccc(Cl)c(Cl)c1)c1cccc(Cl)c1 (stereo not drawn) [Example 447]	501 to 2500 nM
O=C(Cc1ccc(Cl)c(Cl)c1)NCC(CCN1CCC(N2CCCCC2)CC1)c1ccc(Cl)c(Cl)c1 (stereo not drawn) [Example 448]	501 to 2500 nM
O=C(NCC(CCN1CCCCC1)c1ccc(Cl)c(Cl)c1)c1cccc(C(F)(F)F)c1 (stereo not drawn) [Example 449]	501 to 2500 nM
Cc1ccc(C(=O)NCC(CCN2CCCCC2)c2ccc(Cl)c(Cl)c2)cc1 (stereo not drawn) [Example 450]	501 to 2500 nM
Cc1ccc(C(CCN2CCC(N3CCCCC3)CC2)CNC(=O)Cc2ccc(Cl)c(Cl)c2)cc1 (stereo not drawn) [Example 451]	501 to 2500 nM
O=C(NCC(CCN1CCC(N2CCCCC2)CC1)c1ccc(Cl)c(Cl)c1)c1cc(Cl)cc(Cl)c1 (stereo not drawn) [Example 452]	501 to 2500 nM
N#Cc1cccc(C(=O)NCC(CCN2CCCCC2)c2ccc(Cl)c(Cl)c2)c1 (stereo not drawn) [Example 453]	501 to 2500 nM
Cc1ccc(C(CCN2CCCCC2)CNC(=O)c2cc(C(F)(F)F)cc(C(F)(F)F)c2)cc1 (stereo not drawn) [Example 454]	501 to 2500 nM
O=C(NCC(CCN1CCCCC1)c1ccc(Cl)c(Cl)c1)c1ccc(F)cc1 (stereo not drawn) [Example 455]	501 to 2500 nM
Cc1cc(C)cc(C(=O)NCC(CCN2CCCCC2)c2ccc(Cl)c(Cl)c2)c1 (stereo not drawn) [Example 456]	501 to 2500 nM
O=C(NCc1cc(C(F)(F)F)cc(C(F)(F)F)c1)C(CCN1CCC(N2CCCCC2)CC1)c1ccc(Cl)c(Cl)c1 (stereo not drawn) [Example 457]	501 to 2500 nM

Second part, the compound after the results:

Ki	Structure (SMILES)
51 to 500 nM	COc1cc(CN(C)CCC(CNC(=O)Nc2cc(C(F)(F)F)cc(C(F)(F)F)c2)c2ccc(Cl)c(Cl)c2)cc(OC)c1OC (stereo not drawn) [Example 421]
51 to 500 nM	CCN1CCCC1CNCCC(CNC(=O)Nc1cc(C(F)(F)F)cc(C(F)(F)F)c1)c1ccc(Cl)c(Cl)c1 (stereo not drawn) [Example 423]
501 to 2500 nM	CCCN(CC)CCC(CNC(=O)Nc1cc(C(F)(F)F)cc(C(F)(F)F)c1)c1ccc(Cl)c(Cl)c1 (stereo not drawn) [Example 424]
501 to 2500 nM	CN(C)CCCNCCC(CNC(=O)Nc1cc(C(F)(F)F)cc(C(F)(F)F)c1)c1ccc(Cl)c(Cl)c1 (stereo not drawn) [Example 425]
501 to 2500 nM	O=C(NCC(CCNCCc1ccc(O)cc1)c1ccc(Cl)c(Cl)c1)Nc1cc(C(F)(F)F)cc(C(F)(F)F)c1 (stereo not drawn) [Example 426]
501 to 2500 nM	O=C(NCC(CCNCCN1CCOCC1)c1ccc(Cl)c(Cl)c1)Nc1cc(C(F)(F)F)cc(C(F)(F)F)c1 (stereo not drawn) [Example 428]
501 to 2500 nM	O=C(NCC(CCNCC1CCCO1)c1ccc(Cl)c(Cl)c1)Nc1cc(C(F)(F)F)cc(C(F)(F)F)c1 (stereo not drawn) [Example 431]
501 to 2500 nM	CCN(CC)CCC(CNC(=O)Nc1cc(C(F)(F)F)cc(C(F)(F)F)c1)c1ccc(Cl)c(Cl)c1 (stereo not drawn) [Example 433]
501 to 2500 nM	COc1ccc2[nH]cc(CCNCCC(CNC(=O)Nc3cc(C(F)(F)F)cc(C(F)(F)F)c3)c3ccc(Cl)c(Cl)c3)c2c1 (stereo not drawn) [Example 434]
501 to 2500 nM	CCN(CCC(CNC(=O)Nc1cc(C(F)(F)F)cc(C(F)(F)F)c1)c1ccc(Cl)c(Cl)c1)Cc1ccncc1 (stereo not drawn) [Example 435]
501 to 2500 nM	CS(=O)(=O)c1ccc(CNCCC(CNC(=O)Nc2cc(C(F)(F)F)cc(C(F)(F)F)c2)c2ccc(Cl)c(Cl)c2)cc1 (stereo not drawn) [Example 436]
501 to 2500 nM	COc1ccc2c(CCNCCC(CNC(=O)Nc3cc(C(F)(F)F)cc(C(F)(F)F)c3)c3ccc(Cl)c(Cl)c3)c[nH]c2c1 (stereo not drawn) [Example 437]
501 to 2500 nM	CC(Cc1c[nH]c2ccccc12)NCCC(CNC(=O)Nc1cc(C(F)(F)F)cc(C(F)(F)F)c1)c1ccc(Cl)c(Cl)c1 (stereo not drawn) [Example 438]
501 to 2500 nM	CC(Cc1c[nH]c2ccc(F)cc12)NCCC(CNC(=O)Nc1cc(C(F)(F)F)cc(C(F)(F)F)c1)c1ccc(Cl)c(Cl)c1 (stereo not drawn) [Example 439]

Same assay, conditions: [125I]-MCH binding to hMCHR-CHO membranes; class symbols for ranges of Ki; read-out: Activity (Ki range)

Ki	Structure (SMILES)
501 to 2500 nM	CCN(CC)CCC(CNC(=O)c1cc(C(F)(F)F)cc(C(F)(F)F)c1)c1ccc(Cl)c(Cl)c1 (stereo not drawn) [Example 412]
501 to 2500 nM	CN1CCCC1CCNCCC(CNC(=O)c1cc(C(F)(F)F)cc(C(F)(F)F)c1)c1ccc(Cl)c(Cl)c1 (stereo not drawn) [Example 413]
501 to 2500 nM	O=C(NCC(CCNCCCn1ccnc1)c1ccc(Cl)c(Cl)c1)c1cc(C(F)(F)F)cc(C(F)(F)F)c1 (stereo not drawn) [Example 414]
501 to 2500 nM	O=C(NCC(CCNCCc1c[nH]c2cc(F)ccc12)c1ccc(Cl)c(Cl)c1)c1cc(C(F)(F)F)cc(C(F)(F)F)c1 (stereo not drawn) [Example 415]
501 to 2500 nM	O=C(NCC(CCN1CCC(CNC2(CO)CCCC2)CC1)c1ccc(Cl)c(Cl)c1)c1cc(C(F)(F)F)cc(C(F)(F)F)c1 (stereo not drawn) [Example 416]
